Reference: US8916555B2, “3,5-diaminopyrazole kinase inhibitors” (Axikin Pharmaceuticals, Inc., priority 2012, dated 2014)

Key:
[1] = target: T1, kinase domain protein of RC kinase (Homo sapiens, UniProt Q56UN5); assay: Enzymatic assay for kinase inhibitory activity (Crebtide substrate, LANCE readout), kinase domain protein; type: biochemical; settings: test compound 1 μM, ATP 1 μM, Crebtide 50 nM
T1 sequence (Q56UN5 1061-1324 limits assumed): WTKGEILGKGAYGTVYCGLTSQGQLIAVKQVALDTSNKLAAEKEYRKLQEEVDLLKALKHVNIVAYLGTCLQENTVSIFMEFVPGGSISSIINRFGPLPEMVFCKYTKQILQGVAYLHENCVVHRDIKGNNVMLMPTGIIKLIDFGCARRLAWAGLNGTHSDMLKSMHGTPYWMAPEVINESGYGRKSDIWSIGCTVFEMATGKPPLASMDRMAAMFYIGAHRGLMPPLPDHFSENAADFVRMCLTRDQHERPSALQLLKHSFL
Procedure, shortened: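 Kinase domain (1 mg/mL final) with 50 nM Crebtide and 1 μM ATP in MAPK buffer (50 mM HEPES, 10 mM MgCl2, 2 mM DTT, 0.01% Tween 20), 45 min RT. Compound at 1 μM or 1×IC50, duplicate. EDTA/anti-Crebtide stop, 45 min development, LANCE 665/615 nm; % inhibition at 1 μM binned A–D.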

SMILES	melting point [°C]	inhibition at 1 µM [1] [%]	Activity (inhibition of the RC kinase activity at 1 μM) [1]
N#CCc1ccc(Nc2n[nH]c(NCc3ccc(O)cc3)c2C(N)=O)cc1 [Compound D64, 3-((4-(cyanomethyl)phenyl)amino)-5-((4-hydroxybenzyl)amino)-1H-pyrazole-4-carboxamide]	200 to 203	≥ 50	
Cc1ccc(Nc2n[nH]c(NCc3ccc(O)cc3)c2C(N)=O)cc1 [Compound D61, 5-((4-hydroxybenzyl)amino)-3-(p-tolylamino)-1H-pyrazole-4-carboxamide]	169 to 174	≥ 50	
CN(C)c1ccc(CNc2[nH]nc(Nc3cccnc3)c2C(N)=O)c2ccccc12 [Compound D42, 5-(((4-(dimethylamino)naphthalen-1-yl)methyl)amino)-3-(pyridin-3-ylamino)-1H-pyrazole-4-carboxamide]	225 to 229	20 to 50	
COc1ccc(CNc2[nH]nc(Nc3cccnc3)c2C(N)=O)cc1 [Compound D151, 5-((4-methoxybenzyl)amino)-3-(pyridin-3-ylamino)-1H-pyrazole-4-carboxamide]	218 to 222	20 to 50	
NC(=O)c1c(Nc2ccc(N3CCN(C(=O)N4CCCCC4)CC3)cc2)n[nH]c1NCc1ccc(O)cc1 [Compound D110, 5-((4-hydroxybenzyl)amino)-3-((4-(4-(piperidine-1-carbonyl)piperazin-1-yl)phenyl)amino)-1H-pyrazole-4-carboxamide]	236 to 240	≥ 50	
NC(=O)c1c(Nc2ccc(N3CCOCC3)c(F)c2)n[nH]c1NCc1ccc(O)cc1 [Compound D100]	208 to 211	≥ 50	
NC(=O)c1c(Nc2cccc(Cl)c2)n[nH]c1NCc1ccco1 [Compound D96, 3-((3-chlorophenyl)amino)-5-((furan-2-ylmethyl)amino)-1H-pyrazole-4-carboxamide]	214 to 220	20 to 50	
COc1ccccc1CNc1[nH]nc(Nc2cccc(Cl)c2)c1C(N)=O [Compound D157, 3-((3-chlorophenyl)amino)-5-((2-methoxybenzyl)amino)-1H-pyrazole-4-carboxamide]	225 to 227	5 to 20	
NC(=O)c1c(Nc2ccc(S(N)(=O)=O)cc2)n[nH]c1NCc1ccc(O)cc1 [Compound D107, 5-((4-hydroxybenzyl)amino)-3-((4-sulfamoylphenyl)amino)-1H-pyrazole-4-carboxamide]	270 to 275	≥ 50	
COc1ccc(CNc2[nH]nc(Nc3cccc(Cl)c3)c2C(N)=O)c(OC)c1OC [Compound D69]	196 to 200	5 to 20	
NC(=O)c1c(Nc2ccc(-c3ccccc3)cc2)n[nH]c1NCc1ccc(O)cc1 [Compound D161, 3-([1,1′-biphenyl]-4-ylamino)-5-((4-hydroxybenzyl)amino)-1H-pyrazole-4-carboxamide]	206 to 210	≥ 50	
NC(=O)c1c(Nc2ccc(N3CCOC(=O)C3)cc2)n[nH]c1NCc1ccc(O)cc1 [Compound D99, 5-((4-hydroxybenzyl)amino)-3-((4-(2-oxomorpholino)phenyl)amino)-1H-pyrazole-4-carboxamide]	194 to 197	≥ 50	
NC(=O)c1c(Nc2cccc(Cl)c2)n[nH]c1NCc1ccc[nH]1 [Compound D59]	193 to 198	5 to 20	
CC(C)(C)c1ccc(Nc2n[nH]c(NCc3ccc(O)cc3)c2C(N)=O)cc1 [Compound D164, 3-((4-(tert-butyl)phenyl)amino)-5-((4-hydroxybenzyl)amino)-1H-pyrazole-4-carboxamide]	218 to 222	≥ 50	
CC(=O)c1ccc(Nc2n[nH]c(NCc3ccc(O)cc3)c2C(N)=O)cc1 [Compound D62, 3-((4-acetylphenyl)amino)-5-((4-hydroxybenzyl)amino)-1H-pyrazole-4-carboxamide]	167 to 172	≥ 50	
NC(=O)c1c(Nc2cccc(Cl)c2)n[nH]c1NCc1ccoc1 [Compound D97]	219 to 221	5 to 20	

SMILES	melting point [°C]	inhibition at 1 µM [1] [%]	Activity (inhibition of the RC kinase activity at 1 μM) [1]
NC(=O)c1c(Nc2cccnc2)n[nH]c1NCc1cccc(O)c1 [Compound D38, 5-((3-hydroxybenzyl)amino)-3-(pyridin-3-ylamino)-1H-pyrazole-4-carboxamide]	208 to 212	≥ 50	
NC(=O)c1c(Nc2ccc(NC(=O)c3cccc(F)c3)cc2)n[nH]c1NCc1ccc(O)cc1 [Compound D131]	216 to 220	≥ 50	
NC(=O)c1c(Nc2ccc(C(=O)O)cc2)n[nH]c1NCc1ccc(O)cc1 [Compound D165, 4-((4-carbamoyl-5-((4-hydroxybenzyl)amino)-1H-pyrazol-3-yl)amino)benzoic acid]	285 to 290	≥ 50	
NC(=O)c1c(Nc2ccc(C(F)(F)F)nc2)n[nH]c1NCc1ccc(O)cc1 [Compound D91]	259 to 265	≥ 50	
NC(=O)c1c(NCc2c(F)cccc2F)n[nH]c1NCc1ccc(O)cc1 [Compound D114]	189 to 191	≤ 5	
NC(=O)c1c(Nc2cccc(Cl)c2)n[nH]c1NCc1ccc(Oc2ncccn2)cc1 [Compound D32, 3-((3-chlorophenyl)amino)-5-((4-(pyrimidin-2-yloxy)benzyl)amino)-1H-pyrazole-4-carboxamide]	193 to 199		B (no greater than 50% but at least 20% inhibition of the RC kinase activity at 1 μM)
N#Cc1c(Nc2cccc(Cl)c2)n[nH]c1NCc1ccc(Cl)cc1O [Compound C24]	172 to 180	5 to 20	
COc1cc(CNc2[nH]nc(Nc3cccnc3)c2C(N)=O)ccc1F [Compound D40, 5-((4-fluoro-3-methoxybenzyl)amino)-3-(pyridin-3-ylamino)-1H-pyrazole-4-carboxamide]	226 to 229	20 to 50	
NC(=O)c1c(Nc2ccccc2)n[nH]c1NCc1ccc(O)cc1 [Compound D2]	214 to 216	20 to 50	
CC(C)c1ccc(Nc2n[nH]c(NCc3ccc(O)cc3)c2C(N)=O)cc1 [Compound D137, 5-((4-hydroxybenzyl)amino)-3-((4-isopropylphenyl)amino)-1H-pyrazole-4-carboxamide]	200 to 204	20 to 50	
NC(=O)c1c(Nc2cccnc2)n[nH]c1NCc1ccc(Cl)cc1 [Compound D154, 5-((4-chlorobenzyl)amino)-3-(pyridin-3-ylamino)-1H-pyrazole-4-carboxamide]	228 to 231	5 to 20	
COc1ccc(CNc2[nH]nc(Nc3cccc(Cl)c3)c2C(N)=O)c(C)c1 [Compound D73]	195 to 199	20 to 50	
Cc1cn(-c2ccc(Nc3n[nH]c(NCc4ccc(O)cc4)c3C(N)=O)cc2)cn1 [Compound D98, 5-((4-hydroxybenzyl)amino)-3-((4-(4-methyl-1H-imidazol-1-yl)phenyl)amino)-1H-pyrazole-4-carboxamide]	257 to 260	≥ 50	
NC(=O)c1c(Nc2ccc(-c3cc(CO)c4ccccc4n3)cc2)n[nH]c1NCc1ccc(O)cc1 [Compound D125]	216 to 220	≥ 50	
NC(=O)c1c(Nc2cccc(Cl)c2)n[nH]c1NCc1ccc(O)cc1 [Compound D1, 3-((3-chlorophenyl)amino)-5-((4-hydroxybenzyl)amino)-1H-pyrazole-4-carboxamide]	196 to 200	≥ 50	
